The structures appear in SMILES notation. Active and inactive are the calls of the source. No cut-off for these calls is given here. Peptide text beside a SMILES is read from it. * marks the point of attachment. Npys = O=[N+]([O-])c1cccnc1S*

As usually defined, the EC50 is the concentration that produces a half-maximal response. As usually defined, the IC50 is the concentration that inhibits the measured activity by half.

The test system of assay [1] is COS-7. The experiment in a line: Binding affinity to rat Galpha-fused ORL1 receptor expressed in african green monkey COS7 cells at 100 uM after 90 mins. It counts as cell-based.
Assay [2] can be described thus: Binding affinity to rat Galpha-fused ORL1 receptor expressed in african green monkey COS7 cells after 90 mins. It counts as cell-based. As to conditions: cos-7.
A short description of assay [3]: Displacement of [3H]nociceptin from rat Galpha-fused ORL1 receptor expressed in african green monkey COS7 cells. To be noted: cos-7. It counts as cell-based. On the technique in general: In a radioligand displacement assay an active substance lowers the binding of a labelled ligand.
In assay [4] the test system is COS-7. The experiment in a line: Displacement of [3H]nociceptin from rat Galpha-fused ORL1 receptor expressed in african green monkey COS7 cells preincubated with 100 uM N-ethylmaleimide for 90 mins measured after 90 mins. It counts as cell-based.
Assay [5] is filed under the species Rattus norvegicus. As to the kind of experiment: Agonist activity at rat Galpha-fused ORL1 receptor at 10 uM by [35S]GTPgammaS binding assay relative to nociceptin. It counts as functional. Background: GTPγS resists hydrolysis and so accumulates on activated G proteins.
The species entered for assay [6] is Rattus norvegicus. The experiment in a line: Antagonist activity at rat Galpha-fused ORL1 receptor assessed as reduction of receptor agonist nociceptin-induced [35S]GTPgammaS binding at 10 uM. Type of assay: functional.
The test system of assay [7] is COS-7. As to the kind of experiment: Binding affinity to rat Galpha-fused ORL1 receptor expressed in african green monkey COS7 cells at 5 uM after 90 mins. It counts as cell-based.
Assay [8] has as its system COS-7. The experiment in a line: Displacement of [3H]nociceptin from rat Galpha-fused ORL1 receptor expressed in african green monkey COS7 cells preincubated with 5 uM Cys(Npys)-RYYRIK-NH2 for 90 mins measured after 90 mins. Type of assay: cell-based.
The subject of assay [9] is COS-7. The experiment in a line: Ratio of NEM EC50 to compound EC50 for binding affinity to rat Galpha-fused ORL1 receptor expressed in african green monkey COS7 cells. Type of assay: cell-based.
Assay [10] is filed under the species Rattus norvegicus. As to the kind of experiment: Agonist activity at rat Galpha-fused ORL1 receptor by [35S]GTPgammaS binding assay relative to nociceptin. Type of assay: functional.

`CCN1C(=O)C=CC1=O` [N-ETHYLMALEIMIDE]: the Activity with COS-7 [1] came out at 65%. The EC50 in assay [2] came to 43700 nM.

In the case of `CC(C)C[C@H](NC(=O)[C@H](CCCCN)NC(=O)[C@H](CCCNC(=N)N)NC(=O)[C@H](C)NC(=O)[C@H](CO)NC(=O)[C@H](CCCCN)NC(=O)[C@H](CCCNC(=N)N)NC(=O)[C@H](C)NC(=O)CNC(=O)[C@@H](NC(=O)[C@H](Cc1ccccc1)NC(=O)CNC(=O)CNC(=O)[C@@H](N)Cc1ccccc1)[C@@H](C)O)C(=O)N[C@@H](C)C(=O)N[C@@H](CC(N)=O)C(=O)N[C@@H](CCC(N)=O)C(=O)O` [NOCICEPTIN], in assay [3], the IC50 was determined as 0.52 nM. In addition, the result with COS-7 [4] was Active.

As to `CC[C@H](C)[C@H](NC(=O)[C@H](CCCN=C(N)N)NC(=O)[C@H](Cc1ccc(O)cc1)NC(=O)[C@H](Cc1ccc(O)cc1)NC(=O)[C@H](CCCN=C(N)N)NC(C)=O)C(=O)N[C@@H](CCCCN)C(N)=O`, in the assay filed under Rattus norvegicus [5], the Activity is 60%. In the assay with COS-7 [4], the result was Active.

Turning to `CC[C@H](C)[C@H](NC(=O)[C@H](CCCNC(=N)N)NC(=O)[C@H](Cc1ccc(O)cc1)NC(=O)[C@H](Cc1ccc(O)cc1)NC(=O)[C@H](CCCNC(=N)N)NC(=O)[C@@H](N)CSSc1ncccc1[N+](=O)[O-])C(=O)N[C@@H](CCCCN)C(N)=O` (H-C(Npys)RYYRIK-NH2), the IC50 in assay [3] came out at 133 nM. Besides, the Activity in the assay listed under Rattus norvegicus [5] worked out at 5%; in the assay on COS-7 [7], 60%. Further, the result in the assay filed under Rattus norvegicus [6] and in the assay with COS-7 [8] was Active. In assay [2], this compound registered an EC50 of 1900 nM. The Ratio EC50 in the assay with COS-7 [9] came out at 23. Also, the result in the assay listed under Rattus norvegicus [10] was inactive.

Values taken from ChEMBL document CHEMBL1938267, “Capturing of the free cysteine residue in the ligand-binding site by affinity labeling of the ORL1 nociceptin receptor” (Bioorg Med Chem, 2011).
